Read-outs that look alike come from different tables or passages of the source.
How the values were obtained:
[1] = tested on: Coxsackievirus B3-Woodruff (CVB3); assay type: cell-based; details: Coxsackievirus, B3|CVB3, HeLa, read-out: Inhibitory concentration EC50 against CVB3-Woodruff
[2] = tested on: Coxsackievirus B3-Woodruff (CVB3); assay: microbe, parasite or virus in culture; details: B3|CVB3, HeLa
[3] = tested on: CYP3A4; details: 1 μM, rifampicin as positive control, previously tested
[4] = tested on: EV-D68 MP30 PP (mouse-adapted US/MO/14-18949); details: day 3 p.i., during animal model development; ref Hurst et al., 2019; cited from earlier work
[5] = tested on: mouse-adapted CVB5; assay: Mouse model of CVB5-induced pancreatitis; assay type: in vivo, BALB/c mice; details: CVB5-infected mice, Fig. S20
[6] = tested on: Coxsackievirus B5 (CVB5); assay: CVB5 CPE rescue; assay type: cell-based; details: Enterovirus B, B5|CVB5, Vero, read-out: EC50 against CVB5
[7] = tested on: EV-D68; details: read-out: EC50 against EV-D68; ref Liu et al., 2015b; cited from earlier work
[8] = tested on: EV-71; details: read-out: IC50 against EV-71 in vitro; ref Zhang et al., 2012; cited from earlier work
[9] = tested on: 215 clinical isolates of EV serotypes; details: ~90% of isolates; ref Pevear et al., 1999; cited from earlier work
[10] = tested on: enterovirus / picornavirus infections; details: cited from earlier work
[11] = target: T1, pregnane X-receptor (PXR) (Homo sapiens, UniProt O75469); assay: PXR agonist activity
T1 sequence (O75469 1-434): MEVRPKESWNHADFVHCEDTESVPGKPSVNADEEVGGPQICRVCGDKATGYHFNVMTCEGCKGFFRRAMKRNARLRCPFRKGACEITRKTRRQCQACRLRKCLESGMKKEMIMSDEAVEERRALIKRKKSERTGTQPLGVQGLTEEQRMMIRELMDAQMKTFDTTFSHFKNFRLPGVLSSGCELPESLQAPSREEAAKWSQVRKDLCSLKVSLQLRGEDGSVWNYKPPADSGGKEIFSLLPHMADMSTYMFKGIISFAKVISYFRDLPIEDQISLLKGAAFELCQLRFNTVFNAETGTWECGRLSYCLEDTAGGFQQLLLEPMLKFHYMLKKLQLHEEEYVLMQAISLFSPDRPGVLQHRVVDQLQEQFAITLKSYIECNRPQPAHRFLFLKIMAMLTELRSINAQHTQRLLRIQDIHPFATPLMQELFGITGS

[12] = target: CYP3A4 (Homo sapiens, UniProt P08684); details: human liver microsomes, at higher concentrations (Fig. S21)
[13] = tested on: EV-D68; details: mouse model of EV-D68-associated AFM; ref Hixon et al., 2017; cited from earlier work
[14] = tested on: EV-D68 MP30 PP (mouse-adapted); assay: EV-D68 neurological infection; assay type: in vivo, AG129 mice
[15] = tested on: EV-D68 MP30 PP (mouse-adapted US/MO/14-18949); assay: EV-D68 respiratory infection model in four-week-old AG129 mice; assay type: in vivo; details: days 1 and 3 p.i., P≤0.05 vs placebo; guanidine 100 mg/kg/day

Chain of CYP3A4 (Homo sapiens, UniProt P08684) (P08684 whole entry): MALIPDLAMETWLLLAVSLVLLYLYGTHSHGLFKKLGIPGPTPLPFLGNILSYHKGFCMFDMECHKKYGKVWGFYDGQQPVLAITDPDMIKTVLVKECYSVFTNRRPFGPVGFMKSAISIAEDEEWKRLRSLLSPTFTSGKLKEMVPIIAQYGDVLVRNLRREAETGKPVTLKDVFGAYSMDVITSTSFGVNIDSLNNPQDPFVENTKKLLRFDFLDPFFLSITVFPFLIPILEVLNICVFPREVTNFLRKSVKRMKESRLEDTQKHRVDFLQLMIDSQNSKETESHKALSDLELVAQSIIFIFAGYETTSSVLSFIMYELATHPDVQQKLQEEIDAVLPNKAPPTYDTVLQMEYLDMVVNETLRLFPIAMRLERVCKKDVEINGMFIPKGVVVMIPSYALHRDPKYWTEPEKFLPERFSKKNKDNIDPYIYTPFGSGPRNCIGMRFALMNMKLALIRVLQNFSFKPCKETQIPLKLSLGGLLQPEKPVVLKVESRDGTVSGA

`Cc1cc(CCCOc2c(C)cc(-c3noc(C(F)(F)F)n3)cc2C)on1` [Pleconaril] gave an EC50 [1] of 150 ± 10 nM, an EC50 ([2]; read-out: Inhibitory concentration EC50 against CVB3-Woodruff, HeLa cells, adding drug to virus and then infecting at MOI 1 PFU / cell, ± SEM) of 45 nM and an EC50 ([2]; read-out: Inhibitory concentration EC50 against CVB3-Woodruff, HeLa cells, adding drug to virus and then infecting at MOI 3 PFU / cell, ± SEM) of 333 ± 210 nM. For the same molecule, the “CYP3A induction, of control” value [3] was 13 % of control, the CYP3A induction ([3]; single donor in duplicate) was 1.7 x and the Lung virus titers [4] was “did not demonstrate any antiviral activity”. The “Histology of pancreatic tissue” value [5] was “no signs of tissue damage”, the EC50 [6] was 0.66 nM and the EC50 [7] was 430 nM. The IC50 [8] was 340 to 1420 nM, the IC90 [9] was ≤ 180 nM and the “Effect on the treatment of the common cold” value ([10]; 400 mg three times a day over five days, ref Hayden et al., 2003) was “no statistically significant effect”. For the same molecule, the “Patients with clinical improvement” value ([10]; chronic meningoencephalitis, ref Aradottir et al., 2001, Rotbart et al.) was 78%, the “Neonates in whom treatment proved effective” value ([10]; neonates with severe enteroviral hepatitis, ref Aradottir et al., 2001) was 2 of 3 and the “PXR agonism (in words)” value [11] was “neither 11526092 nor pleconaril is an agonist”. The “Effect on CYP3A4 (in words)” value [12] was “activation (or autoactivation) of CYP3A4”.

For `CNCCC(Oc1ccc(C(F)(F)F)cc1)c1ccccc1` (stereo not shown) [fluoxetine], the Viral load [13] is given as “did not reduce the viral load”.

In the case of `Cl.N=C(N)N` [guanidine, Guanidine HCl, reference compound], the Neurological scores ([14]; post-challenge study) is reported as “reduced the neurological score on day 3 post-infection”, the “Mice protected from challenge infection” value ([14]; post-challenge study (treatment 4 hours post-infection)) is reported as > 80% and the “Mice protected from challenge infection” value ([14]; pre-challenge study (treatment 2 hours pre-infection)) is reported as 100%. For the same molecule, the “Protection from weight loss” value ([14]; pretreatment, P≤0.0001, Fig. S19) was “significant protection” and the Lung virus titers [15] was “showed a reduction”.

Reference: paper PMC10527014 (Antiviral research, 2023)
